Data from US5219825A, “Synergistic herbicidal compositions comprising herbicides which generate toxic oxygen radicals and chelating agents which inhibit their detoxification” (Yeda Research and Development Co., Ltd., priority 1986, dated 1993).

Legend:
[1] = test system: Conyza bonariensis paraquat tolerant biotype; experiment: Phytotoxicity measured as 14CO2 fixation 24 h after spraying; format: in vivo; conditions: for % photosynthesis inhibition: tolerant biotype
Experimental: (§1) Seeds of two biotypes of Conyza bonariensis (L.) Cronq. (synonym C. linifolia) were obtained from Egypt. The paraquat sensitive biotype was gathered near Alexendria and seeds of the resistant type from the Tahrir irrigation district. They were obtained from Dr. Martin Parham in England. Seeds were germinated in a growth room with a 14 h light period at 25° C. Plants were transferred out of doors 24 h before being sprayed. The phytotoxicity of three herbicides representative of the three different modes of generating active oxygen species known at present. Commercial paraquat (Gramoxone-ICI Plant Protection Ltd) was formulated with 0.1% (w/v) Tween-20 (a non-ionic surfactant) for spraying. The response to the range of 10^-5 M to 10^-2 M paraquat was measured by spraying two plants per concentration to run-off in the early morning. All plants were exposed to sunlight for at least 13 h (1300 μE.m^-2s^-1 photosynthetically active radiation (PAR) at mid day). Commercial acifluorfen (Blazer, Rohm, and Hass, Philadelphia, Pa., USA) to which was added 0.25% Tween-20 was sprayed to run-off. The response to spraying was measured as with paraquat 24 h after spraying. Commercial atrazine (Atranex 50 WP-Agan) was sprayed at various rates in 0.25% Tween 20 to run off. Fully expanded, 8 to 10 cm long leaves from plants in the rosette stage were used in all experiments. Phytotoxicity of acifluorfen and paraquat was measured as CO2 fixation 24 h later as follows: Detached leaves were placed on wet filter paper in a sealed chamber with 5μ Ci^14 C-sodium bicarbonate. Tartaric acid was remotely dripped on the sodium bicarbonate to release ^14 CO2. Leaves were illuminated with […] (PAR) for 30 min. Eighty percent acetone was added and the mixture put under strong light to photobleach pigments and evaporate the acetone. A scintillation mixture of Lumax:xylene (45:55) was added to the leaves and remaining water. The samples were counted and the data expressed as DPM.cm^-2. Area was measured with a planimeter from photocopies of the leaves made prior to photosynthesis measurements. Phytotoxicity of atrazine was measured as the elevated level of malonyldialdehyde in the tissue. Malonyldialdehyde (as measured with thiobarbituric acid according to Dodge and Gillham (Asp. Appl. Biol 11 97 (1986)) is a measurement of lipoxidation of unsaturated fatty acids, and provides an excellent estimation of damage by active oxygen species.

[2] = test system: Conyza bonariensis paraquat sensitive biotype; experiment: as above; format: in vivo; conditions: for % photosynthesis inhibition: sensitive biotype
Experimental: as §1

bean leaf discs = experiment: Bean leaf disc bleaching assay; format: cell-based; conditions: paraquat 20 μM; chelator 0.01% w/v where added; 5 h at 450 μEin.m^-2 s^-1
Experimental: We used this bean leaf disc system to ascertain the potential of chelators to synergize a large variety of phytotoxicants purported to act by generating active oxygen species in the light.
Bean discs were incubated on solutions containing the above mixtures for 5 h at 450 μEin.m^-2 s^-1 and the chlorophyll remaining in the leaves was assayed.

Beans = experiment: Whole plant spray, visual rating; format: in vivo; conditions: paraquat 100 μM spray to run-off, DDC 0.75% W/V where added, scored 1 day after treatment
Excerpt: Seeds of Conyza bonariensis were germinated and plants cultivated as outlined in Example 1. Other species were germinated in a similar mixture and treated at 10 days.
^a visual ratings (scored 1 day after treatment): 0 no damage to
slight burn; 1 moderate burn (may regenerate); 2 severe burn (will die)

[3] = test system: superoxide dismutase extracted from chloroplasts of Conyza bonariensis biotype requiring high levels of oxidant herbicide; experiment: Inhibition of superoxide dismutase activity on gel; format: biochemical; conditions: gel soaked with 0.2% diethyldithiocarbamate
Experimental: (§2) Based on preliminary evidence that there was no difference in superoxides dismutase activity in whole leaves of these two biotypes and our own findings we assayed the levels of the dismutating enzymes in chloroplast extracts. The oxidant producing herbicides are effective in field conditions only in the light. […] This justifies assay of these enzymes in chloroplasts. Intact chloroplasts were isolated according to the method of Slovacek and Hind (Plant Physio. 60, 538 (1977)) except that 50 mM 2-(N-morpholino)ethanesulfonic acid buffer was used instead of the pyrophosphate buffer originally used in the chloroplast isolation medium. […] Chlorophyll content was measured in 80% acetone according to Arnon (Plant Physiol. 24 1 […]). Intactness of chloroplast was measured by means of ribulose-bis-phosphate-carboxylase activity in the chloroplast fraction supernatant according to Bjorkman (Physiol. Plant 21 1, (1968)), and proteins by the method of Bradford (Analyt. Biochem. 72 248 (1976)). […] We developed a technique to quantify superoxide dismutase by generating a standard curve by running different levels of known superoxide dismutase (ex bovine blood, Sigma) on the same gel. […] The gels were scanned in a Beckman DU-8 spectrophotometer, the peak areas were measured and related to the superoxide dismutase standard curve which was linear up to 0.2 enzyme units. […]

[4] = test system: superoxide dismutase extracted from chloroplasts of Conyza bonariensis biotype requiring low levels of oxidant herbicide; experiment: Inhibition of superoxide dismutase activity on gel; format: biochemical; conditions: gel soaked with 0.2% diethyldithiocarbamate
Experimental: as §2

[5] = herbicide molar conc. 3 × 10^-4
[6] = herbicide molar conc. 3.2 × 10^-5

SMILES	IC100 ([1]; Conyza bonariensis, 24 h, resistant biotype, read-out: concentration at which CO2 assimilation ceased)	% photosynthesis inhibition ([1]; herbicide molar conc. 3 × 10^-3)	% photosynthesis inhibition [1, 5]	% photosynthesis inhibition [1, 6]	% photosynthesis inhibition ([1]; herbicide molar conc. 10^-3)	% photosynthesis inhibition ([1]; herbicide molar conc. 10^-4)	% photosynthesis inhibition ([1]; herbicide molar conc. 10^-5)	IC100 ([2]; Conyza bonariensis, 24 h, wild biotype, read-out: concentration at which CO2 assimilation ceased)	% photosynthesis inhibition [2, 5]	% photosynthesis inhibition [2, 6]	% photosynthesis inhibition ([2]; herbicide molar conc. 10^-3)	% photosynthesis inhibition ([2]; herbicide molar conc. 10^-4)	% photosynthesis inhibition ([2]; herbicide molar conc. 10^-5, spray to run-off)	chlorophyll - % of control (bean leaf discs)	visual rating (Beans)	% inhibition of activity [3]	% inhibition of activity [4]
C[n+]1ccc(-c2cc[n+](C)cc2)cc1 [paraquat, 1,1'-dimethyl-4-4'bipyridium ion]	1000 µM	100%	48%	0%	97%	0%	0%	10 µM	100%	100%	100%	100%	95%	52 % of control	1.5		
CCN(CC)C(=S)[S-].[Na+] [DDC, Sodium diethyldithiocarbamate]																100%	100%
